Measured values: patent publication US20050131463A1, “Perfusion chamber for recording evoked and spontaneous electrical activity from submerged acute brain slices” (priority 2003, published 2005)

Test system: str. radiatum CA1 region of rat hippocampal slices (LTP)
Assay: LTP test (40 Hz theta burst tetanization) in submerged hippocampal slices, field EPSP recording in multi-chamber device
Type: cell-based
Conditions: 40 Hz×4×10 theta burst, p<0.01, 4 rats, 12 slices
Description: A twelve-chamber assembly of chambers according to the embodiment of the invention described in Example 1 is prepared for measurement of twelve slices simultaneously. Each chamber is prepared such that the top ends of the electrodes are placed 50 μm below the bottom net. Bipolar stimulation is utilized and the distance between electrodes is set to 100 μm. Such an assembly with fixed electrodes may be utilized for numerous experiments without readjustment of the electrodes. Individual chambers in the assembly may be replaced as necessary with new chambers. Electrophysiology experiments are performed on a 6-month old male rat. 400 μm hippocampal slices from the rat are prepared using a VIBROTOMETM (vibroslicer WPI; World Precision Instruments) to assure precise thickness. Slices were incubated for 2 hours at room temperature in a perfusion solution containing, in mM, 119 NaCl, 2.5 KCl, 2.5 CaCl2, 1.3 MgSO4, 1.25 NaH2PO4, 26.0 NaHCO3, 10 glucose and equilibrated with 95% O2 and 5% CO2 (pH 7.3-7.4) at room temperature. […] Simultaneous recording from the twelve slices is measured using electrophysiological software, […] […] 30 seconds after the single tetanus, baseline is continued to be collected as before and LTP was measured 60 minutes after tetanization. […] LOGEC 50 values are determined using Prizm4 software (Graphpad).

## COc1ccc(C2CNC(=O)C2)cc1OC1CCCC1 (centres unmarked) [rolipram]
Rolipram 1 μM in perfusion fluid
  % of facilitation of the LTP 60 minutes after tetanic stimulation: significant
Rolipram 10 μM in perfusion fluid
  % of facilitation of the LTP 60 minutes after tetanic stimulation: significant
